Results on 33 molecules are retold here after ChEMBL document CHEMBL3045404, “Structure-Activity Relationships of 2-Chloropyridine-3-carboxamide Fungicides” (J Pestic Sci, 1992).

One assay relates to Rhizoctonia solani. The assay is described as follows: Antifungal activity against Rhizoctonia solani infested in rice seedling incubated for 40 hr in moist chamber followed by incubation for 3 days in greenhouse conditions. In kind it is functional, organism-based.
The next assay concerns Botrytis cinerea. The assay is described as follows: Antifungal activity against Botryotinia fuckeliana infested in cucumber seedling cotyledons after 4 days by pot test. In kind it is functional.

Some results are limits rather than exact numbers.

Turning to `CC1CC(C)(C)c2cccc(NC(=O)c3cccnc3Cl)c21` (stereo unspecified), in the assay on Rhizoctonia solani, the EC50 (usually the concentration needed to bring the measured effect to its halfway point) was 7.76 µM. In the assay with Botrytis cinerea, this molecule yielded a pEC90 of 4.7.
Molecule `O=C(Nc1ccccc1-c1ccccc1)c1cccnc1Cl` showed an EC50 in the assay with Rhizoctonia solani above 6310 µM. The pEC90 with Botrytis cinerea turned out to be 2.8.
In the assay on Rhizoctonia solani, `O=C(Nc1cccc2c1CCC2)c1cccnc1Cl` had an EC50 of 692 µM. In the assay on Botrytis cinerea, this molecule came in with a pEC90 of 2.68.
In the assay on Rhizoctonia solani, `O=C(Nc1ccccc1)c1cccnc1Cl` had an EC50 of 1000 µM. In the assay with Botrytis cinerea, this molecule returned a pEC90 of 2.2.
Consider `CCc1cccc(NC(=O)c2cccnc2Cl)c1`, for which the concentration giving a half-maximal response (EC50) with Rhizoctonia solani is 158 µM. The pEC90 with Botrytis cinerea was below 2.2.
In the assay on Rhizoctonia solani, `CCOc1cccc(NC(=O)c2cccnc2Cl)c1` had an EC50 of 85.1 µM. This molecule also came in with a pEC90 with Botrytis cinerea below 2.2.
`CC(C)Oc1cccc(NC(=O)c2cccnc2Cl)c1` gave an EC50 in the assay with Rhizoctonia solani of 57.5 µM. In addition, in the assay on Botrytis cinerea, the pEC90 is given as below 2.2.
As for `CCc1ccccc1NC(=O)c1cccnc1Cl`, the EC50 in the assay on Rhizoctonia solani is 2000 µM. Besides, in the assay with Botrytis cinerea, the pEC90 is on record as 2.57.
Take `CC(C)c1ccccc1NC(=O)c1cccnc1Cl`: the EC50 in the assay on Rhizoctonia solani was 1510 µM. Besides, in the assay on Botrytis cinerea, the pEC90 was 3.19.
`CCOc1ccccc1NC(=O)c1cccnc1Cl` showed an EC50 in the assay with Rhizoctonia solani of 1100 µM. The pEC90 with Botrytis cinerea is 2.48.
In the assay on Rhizoctonia solani, `C=C(C)c1ccccc1NC(=O)c1cccnc1Cl` showed an EC50 of 1170 µM. Also, the pEC90 in the assay with Botrytis cinerea is 3.78.
Consider `CCOc1c(NC(=O)c2cccnc2Cl)cccc1C(C)C`, for which the midpoint of the response in the assay with Rhizoctonia solani, the EC50, lay at 112 µM. Moreover, in the assay with Botrytis cinerea, the pEC90 came out at 3.32.
Taken in the same sequence, the figures for `CCc1c(C)cccc1NC(=O)c1cccnc1Cl` were 724 µM and 2.96.
For `CC1CCc2cccc(NC(=O)c3cccnc3Cl)c21` (stereo unspecified) the same measures were 631 µM and 4.15.
`CC1Cc2cccc(NC(=O)c3cccnc3Cl)c2C1` (stereo unspecified): a half-maximal response in the assay on Rhizoctonia solani (EC50) required 692 µM. The same molecule came in with a pEC90 in the assay with Botrytis cinerea of 3.11.
In the assay with Rhizoctonia solani, `CC1CCc2c(NC(=O)c3cccnc3Cl)cccc21` (stereo unspecified) gave an EC50 of 52.5 µM. The same molecule returned a pEC90 in the assay with Botrytis cinerea of 3.03.
For `CC1(C)CCc2c(NC(=O)c3cccnc3Cl)cccc21` the same measures were 28.8 µM and 2.97.
Consider `CCC1CC(C)(C)c2cccc(NC(=O)c3cccnc3Cl)c21` (stereo unspecified), for which the EC50 with Rhizoctonia solani was 7.24 µM. Besides, the pEC90 in the assay with Botrytis cinerea amounted to 4.75.
For `CCC1CC(C)(CC)c2cccc(NC(=O)c3cccnc3Cl)c21` (stereo unspecified) the same measures were 33.9 µM and 4.58.
For `CC1SCc2cccc(NC(=O)c3cccnc3Cl)c21` (stereo unspecified) the same measures were 933 µM and 2.93.
For `CC1OCc2cccc(NC(=O)c3cccnc3Cl)c21` (stereo unspecified) the same measures were 525 µM and 2.93.
As for `CC1OC(C)(C)c2cccc(NC(=O)c3cccnc3Cl)c21` (stereo unspecified), the EC50 in the assay on Rhizoctonia solani is 14.1 µM. Besides, in the assay on Botrytis cinerea, the pEC90 is 3.93.
Regarding `CCC1OC(C)(C)c2cccc(NC(=O)c3cccnc3Cl)c21` (stereo unspecified), the EC50 in the assay with Rhizoctonia solani was 12.3 µM. This molecule also displayed a pEC90 in the assay with Botrytis cinerea of 3.55.
Taken in the same sequence, the figures for `O=C(Nc1cccc2c1OCC2)c1cccnc1Cl` were 1620 µM and below 2.2.
In the case of `CC1(C)Cc2cccc(NC(=O)c3cccnc3Cl)c2O1`, the EC50 with Rhizoctonia solani was 214 µM. This molecule registered a pEC90 in the assay with Botrytis cinerea of 3.84.
Turning to `CCCCC1(CC)Cc2cccc(NC(=O)c3cccnc3Cl)c2O1` (stereo unspecified), a half-maximal response with Rhizoctonia solani (EC50) required 1550 µM. For the same molecule, in the assay on Botrytis cinerea, the pEC90 amounted to 3.04.
In the assay with Rhizoctonia solani, `Cc1oc2cccc(NC(=O)c3cccnc3Cl)c2c1C` gave an EC50 of 603 µM. The molecule further came in with a pEC90 in the assay on Botrytis cinerea below 2.2.
As to `CC1Oc2cccc(NC(=O)c3cccnc3Cl)c2C1C` (stereo unspecified), the EC50 with Rhizoctonia solani is 631 µM. The pEC90 in the assay with Botrytis cinerea is on record as below 2.2.
For the molecule `CC1(C)Oc2cccc(NC(=O)c3cccnc3Cl)c2O1`, in the assay with Rhizoctonia solani, the EC50 was 759 µM. This molecule also returned a pEC90 in the assay on Botrytis cinerea of 2.76.
For `CC1(C)CCc2cccc(NC(=O)c3cccnc3Cl)c2O1`, the EC50 in the assay with Rhizoctonia solani was 1450 µM. Moreover, the pEC90 in the assay on Botrytis cinerea worked out at 3.66.
As for `CCC1(CC)CCc2cccc(NC(=O)c3cccnc3Cl)c2O1`, in the assay with Rhizoctonia solani, the EC50 was 1150 µM. For the same molecule, in the assay with Botrytis cinerea, the pEC90 came out at 4.41.
In turn, `CC1(C)OCc2cccc(NC(=O)c3cccnc3Cl)c2O1` showed an EC50 in the assay with Rhizoctonia solani of 1450 µM. The molecule also displayed a pEC90 with Botrytis cinerea of 3.29.
Taken in the same sequence, the figures for `CCC1(C)Oc2c(NC(=O)c3cccnc3Cl)cccc2C(C)O1` (stereo unspecified) were 13.2 µM and 3.57.
